Active and inactive are the calls of the source.
Assays:
[1] = target: T1, Endoribonuclease toxin MazF (Escherichia coli K-12, UniProt P0AE70); test: MazF toxin RNase activators, dose response, biochemical, fluorescence, single-stranded RNA substrate, uHTS hits (AID 588481); format: functional
[2] = target: T1, Endoribonuclease toxin MazF; test: fluorescent RNA oligo signal without MazF, dose response, counter-screen for MazEF activator project, biochemical, fluorescence, single-stranded RNase substrate (AID 588502); format: functional
[3] = control 3'UTR Renilla luciferase suppression, dose response, counter-screen for Shn3 inhibitor project, cell-based, Clone20-Shn3RL, cherry-picked (AID 624133); format: functional
Fatty acid synthase [4] = target: T2, Fatty acid synthase (Homo sapiens, UniProt P49327); test: FAS thioesterase domain inhibitors, dose response, biochemical, kinetic fluorescence intensity (AID 624326); format: functional;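 note: rate of fluorescence rise from hydrolysis of a fluorogenic O-methyl fluorescein ester substrate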
Fatty acid synthase [5] = target: T2, Fatty acid synthase; test: FAS thioesterase domain inhibitors, dose response, biochemical, endpoint fluorescence intensity, uHTS hits (AID 624327); format: functional;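 note: fluorescence from hydrolysis of an O-methyl fluorescein acyl ester substrate by the enzyme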
[6] = target: T3, Replicative DNA helicase DnaB (Mycobacterium tuberculosis, UniProt P9WMR3); test: DnaB intein splicing inhibitors, dose response, biochemical, cell-free fluorescence (AID 449749); format: functional
T3 sequence (P9WMR3 whole entry): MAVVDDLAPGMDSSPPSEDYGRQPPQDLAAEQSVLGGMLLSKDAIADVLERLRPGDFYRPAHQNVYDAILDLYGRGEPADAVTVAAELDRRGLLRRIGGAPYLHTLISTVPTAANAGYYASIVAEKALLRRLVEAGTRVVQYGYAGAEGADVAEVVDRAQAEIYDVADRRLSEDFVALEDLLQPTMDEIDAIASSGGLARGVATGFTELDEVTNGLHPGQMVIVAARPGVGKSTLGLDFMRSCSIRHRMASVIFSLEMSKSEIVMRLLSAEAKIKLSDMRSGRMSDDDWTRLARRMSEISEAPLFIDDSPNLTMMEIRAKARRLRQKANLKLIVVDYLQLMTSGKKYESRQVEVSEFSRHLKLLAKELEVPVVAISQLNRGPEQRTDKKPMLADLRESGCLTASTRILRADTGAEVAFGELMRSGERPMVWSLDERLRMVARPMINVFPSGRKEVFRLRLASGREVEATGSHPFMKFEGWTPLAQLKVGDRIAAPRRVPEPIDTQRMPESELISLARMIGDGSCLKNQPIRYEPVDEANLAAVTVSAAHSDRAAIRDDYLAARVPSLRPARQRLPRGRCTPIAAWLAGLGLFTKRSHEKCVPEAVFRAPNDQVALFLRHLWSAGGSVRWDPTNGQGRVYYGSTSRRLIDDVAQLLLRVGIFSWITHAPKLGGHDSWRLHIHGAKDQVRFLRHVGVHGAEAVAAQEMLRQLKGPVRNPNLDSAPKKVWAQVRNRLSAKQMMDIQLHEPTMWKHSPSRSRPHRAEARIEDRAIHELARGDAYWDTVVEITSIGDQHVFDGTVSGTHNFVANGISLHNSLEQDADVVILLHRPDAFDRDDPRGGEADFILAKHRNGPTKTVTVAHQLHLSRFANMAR

CHO = test: cytotoxicity in TLR9-MyD88 CHO cells, dose response, cytotoxicity control for TLR9-MyD88 binding inhibitor project, cell-based, luminescence (AID 588339); format: functional, hamster; details: Cricetulus griseus;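 note: CHO cells stably coexpressing TLR9 and MyD88 fusions from primary screen; compound exposure lasted 48 hours before viability readout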
[7] = Shn3 3'UTR reporter inhibitors, dose response, cell-based, Clone20 osteoblasts, firefly luciferase, cherry-picked (AID 624132); format: functional;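 note: firefly luciferase luminescence from reporter carrying the Shn3 3'UTR in osteoblasts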
Beta Lactamase = Beta Lactamase (Pseudomonas aeruginosa, UniProt Q932Y6); test: beta-lactamase reporter inhibitor potency, dose response, artefact control for TLR9-MyD88 binding inhibitor project, BLA reporter cells, FRET fluorescence (AID 588341); format: cell-based;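 note: cell based assay in CHO-K1 cells stably expressing beta-lactamase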
[8] = HepG2 cell cytotoxicity, dose response, cytotoxicity control for Shn3 inhibitor project, CellTiter-Glo, cherry-picked (AID 624134); format: functional, cell-based
Protein RecA = target: T4, Protein RecA (Mycobacterium tuberculosis, UniProt P9WHJ3); test: Fluorescence Cell-Free Homogeneous Dose Retest to Identify Inhibitors of RecA-Intein Splicing Activity. [Related pubchem assays (depositor defined):AID2097, AID2223, AID489010, AID492950]; format: functional
T4 sequence (P9WHJ3 whole entry): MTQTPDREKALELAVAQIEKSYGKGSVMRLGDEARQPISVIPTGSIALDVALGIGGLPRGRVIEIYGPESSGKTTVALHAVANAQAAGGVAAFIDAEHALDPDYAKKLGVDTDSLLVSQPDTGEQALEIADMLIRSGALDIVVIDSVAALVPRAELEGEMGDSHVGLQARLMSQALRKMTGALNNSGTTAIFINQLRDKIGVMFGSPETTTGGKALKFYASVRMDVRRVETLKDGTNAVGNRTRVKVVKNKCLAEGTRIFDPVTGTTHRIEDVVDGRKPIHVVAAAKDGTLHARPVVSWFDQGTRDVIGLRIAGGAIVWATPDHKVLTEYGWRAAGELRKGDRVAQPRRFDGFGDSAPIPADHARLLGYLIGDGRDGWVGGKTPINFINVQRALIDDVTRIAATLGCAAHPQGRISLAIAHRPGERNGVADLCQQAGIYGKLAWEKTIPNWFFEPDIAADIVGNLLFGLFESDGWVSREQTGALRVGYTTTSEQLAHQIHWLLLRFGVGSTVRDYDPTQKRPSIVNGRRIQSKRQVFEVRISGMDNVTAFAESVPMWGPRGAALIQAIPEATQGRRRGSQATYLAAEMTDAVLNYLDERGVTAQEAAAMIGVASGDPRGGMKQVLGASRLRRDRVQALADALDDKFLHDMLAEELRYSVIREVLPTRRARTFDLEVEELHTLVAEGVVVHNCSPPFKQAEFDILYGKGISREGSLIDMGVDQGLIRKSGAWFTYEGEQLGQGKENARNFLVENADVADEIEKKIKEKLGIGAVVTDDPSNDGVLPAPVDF

T2 sequence (P49327 whole entry, the tested form may be a part): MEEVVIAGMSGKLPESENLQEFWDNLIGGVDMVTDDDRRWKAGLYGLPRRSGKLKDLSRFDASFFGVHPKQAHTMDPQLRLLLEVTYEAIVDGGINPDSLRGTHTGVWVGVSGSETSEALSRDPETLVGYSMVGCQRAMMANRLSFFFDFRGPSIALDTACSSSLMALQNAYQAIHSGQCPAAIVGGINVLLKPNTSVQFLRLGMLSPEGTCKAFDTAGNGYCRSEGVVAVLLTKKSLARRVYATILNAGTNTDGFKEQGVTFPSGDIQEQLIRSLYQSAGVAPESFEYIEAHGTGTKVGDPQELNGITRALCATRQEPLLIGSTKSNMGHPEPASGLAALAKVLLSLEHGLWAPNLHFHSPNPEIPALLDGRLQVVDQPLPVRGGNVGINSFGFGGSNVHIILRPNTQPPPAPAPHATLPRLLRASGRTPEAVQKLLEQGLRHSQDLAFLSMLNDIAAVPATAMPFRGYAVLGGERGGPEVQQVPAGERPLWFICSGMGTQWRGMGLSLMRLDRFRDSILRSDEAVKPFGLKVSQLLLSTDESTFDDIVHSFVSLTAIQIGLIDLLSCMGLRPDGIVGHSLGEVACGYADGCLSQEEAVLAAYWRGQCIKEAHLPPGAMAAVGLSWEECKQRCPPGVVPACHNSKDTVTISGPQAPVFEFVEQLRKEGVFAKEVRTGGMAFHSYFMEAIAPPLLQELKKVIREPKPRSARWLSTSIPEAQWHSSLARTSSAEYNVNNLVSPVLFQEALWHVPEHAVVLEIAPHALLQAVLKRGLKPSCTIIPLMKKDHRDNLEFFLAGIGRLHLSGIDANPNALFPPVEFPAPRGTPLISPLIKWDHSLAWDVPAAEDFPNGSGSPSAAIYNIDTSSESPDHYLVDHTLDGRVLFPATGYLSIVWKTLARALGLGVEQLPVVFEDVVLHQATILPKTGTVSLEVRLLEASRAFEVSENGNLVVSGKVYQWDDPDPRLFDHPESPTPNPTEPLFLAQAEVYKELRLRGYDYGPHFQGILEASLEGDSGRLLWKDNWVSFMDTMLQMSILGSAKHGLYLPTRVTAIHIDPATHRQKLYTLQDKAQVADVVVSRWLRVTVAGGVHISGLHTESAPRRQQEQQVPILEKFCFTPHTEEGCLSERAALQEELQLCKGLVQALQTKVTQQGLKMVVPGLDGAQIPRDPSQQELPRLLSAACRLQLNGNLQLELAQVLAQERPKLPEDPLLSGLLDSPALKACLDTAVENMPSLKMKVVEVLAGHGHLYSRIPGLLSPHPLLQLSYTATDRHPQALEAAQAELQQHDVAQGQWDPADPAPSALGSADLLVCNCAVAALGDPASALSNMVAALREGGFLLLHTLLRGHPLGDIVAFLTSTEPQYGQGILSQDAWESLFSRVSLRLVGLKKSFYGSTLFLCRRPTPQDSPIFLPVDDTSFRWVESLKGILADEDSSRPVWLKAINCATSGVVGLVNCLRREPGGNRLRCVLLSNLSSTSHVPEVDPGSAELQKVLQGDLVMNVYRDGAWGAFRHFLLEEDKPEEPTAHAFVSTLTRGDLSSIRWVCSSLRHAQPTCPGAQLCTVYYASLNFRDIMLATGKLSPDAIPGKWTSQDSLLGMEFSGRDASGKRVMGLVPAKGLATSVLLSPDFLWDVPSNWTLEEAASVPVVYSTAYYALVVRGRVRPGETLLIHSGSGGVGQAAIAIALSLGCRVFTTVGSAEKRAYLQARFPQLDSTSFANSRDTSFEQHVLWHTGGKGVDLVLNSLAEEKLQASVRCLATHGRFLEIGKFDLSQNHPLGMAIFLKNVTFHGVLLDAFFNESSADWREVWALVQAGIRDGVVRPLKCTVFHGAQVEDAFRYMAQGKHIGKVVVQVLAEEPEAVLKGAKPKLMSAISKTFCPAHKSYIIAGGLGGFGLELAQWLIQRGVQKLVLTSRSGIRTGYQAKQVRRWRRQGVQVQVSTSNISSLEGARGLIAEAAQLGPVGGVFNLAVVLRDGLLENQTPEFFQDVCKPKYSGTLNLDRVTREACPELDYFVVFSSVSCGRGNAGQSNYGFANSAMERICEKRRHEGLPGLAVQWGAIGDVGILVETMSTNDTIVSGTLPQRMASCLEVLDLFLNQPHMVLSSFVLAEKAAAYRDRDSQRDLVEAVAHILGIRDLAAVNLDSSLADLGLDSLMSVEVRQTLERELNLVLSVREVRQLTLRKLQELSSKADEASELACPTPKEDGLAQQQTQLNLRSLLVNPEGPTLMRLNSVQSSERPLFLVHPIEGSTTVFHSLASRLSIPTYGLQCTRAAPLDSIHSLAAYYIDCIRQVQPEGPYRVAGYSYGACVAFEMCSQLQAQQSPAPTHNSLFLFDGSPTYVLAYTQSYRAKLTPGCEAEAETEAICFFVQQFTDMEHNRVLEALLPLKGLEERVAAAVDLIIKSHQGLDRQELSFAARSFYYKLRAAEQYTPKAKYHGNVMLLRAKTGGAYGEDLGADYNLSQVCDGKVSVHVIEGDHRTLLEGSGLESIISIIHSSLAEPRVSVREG
T1 sequence (P0AE70 whole entry): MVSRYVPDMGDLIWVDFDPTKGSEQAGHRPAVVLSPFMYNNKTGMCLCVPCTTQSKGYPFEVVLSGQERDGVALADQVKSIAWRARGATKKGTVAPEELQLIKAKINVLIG
Sequence of Beta Lactamase (Q932Y6 whole entry): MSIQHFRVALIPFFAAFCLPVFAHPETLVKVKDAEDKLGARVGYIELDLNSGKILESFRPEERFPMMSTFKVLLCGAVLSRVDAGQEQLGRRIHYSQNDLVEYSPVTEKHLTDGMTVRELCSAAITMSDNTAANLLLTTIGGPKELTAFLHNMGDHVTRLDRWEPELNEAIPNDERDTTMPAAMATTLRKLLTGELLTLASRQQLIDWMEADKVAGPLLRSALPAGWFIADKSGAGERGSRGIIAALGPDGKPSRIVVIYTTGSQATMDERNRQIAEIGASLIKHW

| SMILES | EC50 [1] | EC50 [2] | AC50 [3] | IC50 (Fatty acid synthase [4]) | IC50 (Fatty acid synthase [5]) | AC50 [6] | IC50 (CHO) | AC50 [7] | IC50 (Beta Lactamase) | AC50 [8] | EC50 (Protein RecA) |
| --- | --- | --- | --- | --- | --- | --- | --- | --- | --- | --- | --- |
| Cc1cc(C)c(NC(=O)Cn2nnc(C(=O)NCc3ccc4c(c3)OCO4)c2N)c(C)c1 | > 99 µM (inactive) | > 99 µM (inactive) |  |  |  |  |  |  |  |  |  |
| CCCC(=O)OCCNc1cc(Sc2nc3ccccc3[nH]2)c2nonc2c1[N+](=O)[O-] |  |  | 8.96 µM (active) | 1.34 µM (active) | 2.2 µM (active) | 0.855 µM (active) | 4.59 µM (active) | 6.63 µM (active) | 10.9 µM (inactive) | 24.2 µM (active) | 0.657 µM (active) |

Source: ChEMBL document CHEMBL1201862, “PubChem BioAssay data set” (2004)
